From patent US5994361A, “Substituted purinyl derivatives with immunomodulating activity” (priority 1995, dated 1999)
Where two headings read alike, the source gives them in different places.

Experiments:
[1] = system: T cell activity (ConA), spleen mononuclear leukocytes; test: Mitogenic proliferation on spleen cell suspension, T (ConA); format: cell-based, C57BL-6 mice
Source text: (§1) Mitogenic lectin (mitogen) is a protein which binds and cross-links specific cells surface carbohydrate determinants, and will polyclonally stimulate lymphoid cells. Lymphocyte activation by either antigens or mitogens results in intracellular changes and the subsequent development into a lymphoblast. Mitogenic stimulation of lymphocytes in vitro is believed to mimic the series of events which occur in vivo following their stimulation by specific antigens. PHA, ConA, and PWM, LPS mitogens can be used as a measurement of T cell and B cell activity, respectively.
(§2) Briefly, spleen mononuclear leukocytes from C57BL-6 mice were incubated in the presence or absence of mitogens with or without tested drugs. After 72 hours or 5 days, ^3 H thymidine incorporation was recorded as an indication of cell transformation and proliferation.
(§3) 100 μl of a suspension of 2×10^6 cells/ml (2×10^5 cells/well) were incubated in presence of PHA or ConA or PWM or LPS at the following concentrations:
(§4) PHA=0.01% final concentration-0.001%
(§5) Cells were incubated in presence or absence of drugs for 72 hours. 0.5 or 1 μCi of tritiated thymidine (^3 H) was added per well the last 18 or 6 hours of incubation respectively. Cells were harvested and counted on a Beta counter.

[2] = system: B cell activity (LPS), spleen mononuclear leukocytes; test: Mitogenic proliferation on spleen cell suspension, B (LPS); format: cell-based, C57BL-6 mice
Source text: as §1, §2, §3, §4, §5

[3] = system: cytotoxic T lymphocytes, P815 target cells; test: Cytotoxic T lymphocytes (CTL) assay; format: cell-based, C57B1/6 mice and DBA/2 mice; details: for activation at 10 µM / activation at 0.1 µM / activation at 0.001 µM: Mus musculus, P815, 120 h, read-out: CTL activity, % increase compared to IL2 (100%); for activation at 10 µM: at 10^-5 M; for activation at 0.001 µM: at 10^-9 M
Protocol: (§6) Mixed lymphocyte reaction is an in vitro counterpart of the allograft rejection. Briefly, T cell response was obtained when cells taken from two inbred strains from two outbred individuals of any species were mixed in vitro in culture.
(§7) After 4 days incubation, ^3 H thymidine uptake and cytotoxicity assay (CTL) were performed.
(§8) 3 C57B1/6 mice and 3 DBA/2 mice wre killed and lymphocytes prepared using lympholyte M. The cell concentration was adjusted to 10×10^6 cell/ml for each lysis. DBA/2 cells were irradiated with 3000 Rads. 1 ml of the C57 cells+1 ml of the DBA/2 cells+1 ml of the drug at 3 different concentrations were incubated together for 5 days. Positive control was IL-2 at 15 ng/ml final. After 5 days, the CTL and MLR tests were carried out.
P815 target cells were labelled with Cr^51. After labelling, the cells were resuspended to 5×10^4 cells/ml.
100 μl of target cells+100 μl Of T cells were incubated for 4 hrs and then 100 μl of supernatant was counted using a gamma counter.

[4] = system: T cell response (mixed lymphocyte reaction); test: Mixed lymphocyte reaction (MLR) assay; format: cell-based, C57B1/6 mice and DBA/2 mice
Protocol: as §6, §7, §8
The cells were resuspended and 100 μl of cell suspension were deposited in each of the 96 wells in the plate, 50 μl of Thymidine at 20 μCi/ml was added for 6 hrs. The cells were then collected and counted using a beta counter.

[5] = system: immune system; details: prior art; cited from earlier work
[6] = prior art; cited from earlier work
[7] = at 10^-12 - 10^-6 (M), 4320 min

For `CN(C)c1ncnc2c1ncn2CCCCCOC(=O)N[C@@H](CCCNC(=N)N)C(=O)O` [Compound #2, N,N-Dimethylaminopurinyl Pentoxycarbonyl L-Arginine], the “T (ConA) mitogenic proliferation” value ([1]; at 10^-8 - 10^-5 (M), 4320 min) was 2 - 4 ×, the “B (LPS) mitogenic proliferation” value ([2]; concentration not given) was 0 and the “CTL activity, % increase compared to IL2 (100%)” value (shortened to “CTL activity, % increase”) ([3]; concentration not given) was 0 (less than 20%). For the same molecule, the MLR ([4]; at 10^-7 - 10^-5 M) was 1.5 - 2 ×.
In the case of `CNc1ncnc2c1ncn2CCCCCOC(=O)N[C@H](CCCNC(=N)N)C(=O)O` [Compound #3, N-Monomethylaminopurinyl Pentoxycarbonyl D-Arginine], the “T (ConA) mitogenic proliferation” value [1, 7] is reported as 2 - 6 ×, the “B (LPS) mitogenic proliferation” value ([2]; at 10^-8 - 10^-6 (M), 4320 min) is reported as 2 - 2.5 × and the activation at 10 µM [3] is reported as 20 to 40%. For the same molecule, the MLR ([4]; at 10^-9 - 10^-5 M) was 1.5 ×.
With `CNc1ncnc2c1ncn2CCCCCO` [Compound #3a, N-(6-N-Methyl-Aminopurin-9-yl)-pentanol] the “CTL activity, % increase” value ([3]; at 10^-9 - 10^-7 M) was “+++ (60-80%)” and the MLR ([4]; at 10^-9 - 10^-5 M) was 1.5 - 2.9 ×.
For `N=C(N)NCCC[C@@H](NC(=O)OCCCCCn1cnc2c(N)ncnc21)C(=O)O` [Compound #5, Aminopurinyl Pentoxycarbonyl D-Arginine], the activation at 0.1 µM ([3]; at 10^-7 M) was 20 to 40% and the MLR ([4]; at 10^-7 - 10^-5 M) was 1.5 - 2 ×.
With `Nc1ncnc2c1ncn2CCCCCO` [Compound #5a, N-(6-Aminopurin-9-Yl) 5-Pentanol] the “CTL activity, % increase” value ([3]; at 10^-7 - 10^-5 M) was “++ (40-60%)” and the MLR ([4]; at 10^-9 - 10^-6 M, 7200 min) was 1.5 - 2 ×.
With `N=C(N)NCCC[C@H](NC(=O)OCCCCCn1cnc2c(N)ncnc21)C(=O)O` [Compound #6, Aminopurinyl Pentoxycarbonyl L-Arginine] the activation at 0.001 µM [3] was 60 to 80% and the MLR ([4]; at 10^-9 - 10^-5 M) was 1.5 - 3 ×.
With `N=C(N)NCCC[C@@H](NC(=O)OCCCCCn1cnc2c(NN)ncnc21)C(=O)O` [Compound #7, Hydrazinopurinyl Pentoxycarbonyl D-Arginine] the “T (ConA) mitogenic proliferation” value ([1]; at 10^-12 - 10^-8 (M), 4320 min) was 2 - 6 ×, the “B (LPS) mitogenic proliferation” value ([2]; concentration not given) was 0 and the activation at 0.001 µM [3] was 60 to 80%. The MLR ([4]; at 10^-9 - 10^-6 M, 7200 min) was 1.5 - 2 ×.
`NNc1ncnc2c1ncn2CCCCCO` [Compound #7a, N-(6-Hydrazinopurin-9-yl) 5-Pentanol] gave an activation at 0.001 µM ([3]; preliminary result) of over 80% and an MLR ([4]; at 10^-9 - 10^-5 M, preliminary result) of 2 ×.
With `N=C(N)NCCC[C@H](NC(=O)OCCCCCn1cnc2c(NN)ncnc21)C(=O)O` [Compound #8, Hydrazinopurinyl Pentoxycarbonyl L-Arginine] the activation at 0.001 µM [3] was over 80% and the MLR ([4]; at 10^-9 - 10^-5 M) was 1.5 - 2 ×.
In the case of `N=C(N)NCCC[C@@H](NC(=O)OCCCCCn1cnc2c(Cl)ncnc21)C(=O)O` [Compound #9, Chloropurinyl Pentoxycarbonyl D-Arginine], the “T (ConA) mitogenic proliferation” value [1, 7] is reported as 2 - 3.5 ×.
In the case of `N=C(N)NCCC[C@@H](NC(=O)OCCCCCn1cnc2c(=O)[nH]cnc21)C(=O)O` [Compound #11, Hydroxypurinyl Pentoxycarbonyl D-Arginine], the activation at 0.1 µM ([3]; at 10^-7 M) is reported as 40 to 60% and the MLR ([4]; at 10^-7 - 10^-5 M) is reported as 2 - 2.5 ×.
Molecule `OCCCCCn1cnc2cncnc21` [Compound #19, N-9-purinyl-5-pentanol] has an activation at 0.1 µM ([3]; at 10^-7 M, preliminary result) of 40 to 60% and an MLR ([4]; concentration not given, preliminary result) of 0.
In the case of `N=C(N)NCCC[C@@H](NC(=O)OCCCCCn1cnc2cncnc21)C(=O)O` [Compound #20, N-9-purinyl-7-pentyloxycarbonyl-D-arginine], the activation at 10 µM [3] is reported as 40 to 60%.
With `COc1ncnc2c1ncn2CCCCCO` [Compound #51, N-(6-methoxypurin-9-yl) 5-pentanol] the activation at 0.1 µM ([3]; at 10^-7 M) was 40 to 60% and the MLR ([4]; at 10^-9 - 10^-6 M, 7200 min) was 1.5 - 2 ×.
In the case of `OCCCCCn1cnc2c(S)ncnc21` [Compound #59, N-(6-Mercaptopurin-9-yl)-pentanol], the activation at 0.001 µM [3] is reported as 40 to 60% and the MLR ([4]; at 10^-9 - 10^-5 M) is reported as 2 - 2.4 ×.
For `CSc1ncnc2c1ncn2CCCCCO` [Compound #60, N-(6,-N-Methylthiopurin-9-yl)-pentanol], the activation at 0.1 µM ([3]; at 10^-7 M) was 20 to 40% and the MLR ([4]; at 10^-9 - 10^-5 M) was 1.7 - 2 ×.
For `OCCCCCn1cnc2c(Cl)ncnc21` [Compound #III, N-(6-Chloropurin-9-yl)-5-pentanol], the activation at 0.1 µM ([3]; at 10^-7 M) was 60 to 80% and the MLR ([4]; at 10^-9 - 10^-5 M) was 1.5 - 2.5 ×.
With `CN(C)c1ncnc2c1ncn2CCCCCO` [Compound #V, N-(6-N,N-Dimethylaminopurin-9-yl)-pentanol] the activation at 0.1 µM ([3]; at 10^-7 M) was 60 to 80% and the MLR ([4]; at 10^7 - 10^5 M (so in the source)) was 1.5 - 2 ×.
In the case of `O=c1[nH]cnc2c1cnn2CCCCCO` [ST 689, allopurinol pentanol, reference compound], the “CTL activity, % increase” value ([3]; at 10^-7 M, preliminary result) is given as “++++ (80+)”, the MLR ([4]; at 10^-5 M, preliminary result, 10 µM) is given as 1.6 × and the immunomodulating activity [5] is given as “not significantly more immunostimulatory than ST 789”.
With `N=C(N)NCCC[C@H](NC(=O)OCCCCCn1cnc2c(=O)[nH]cnc21)C(=O)O` [ST 789, reference compound] the “T (ConA) mitogenic proliferation” value ([1]; concentration not given) was 0, the “B (LPS) mitogenic proliferation” value ([2]; at 10^-8 - 10^-5 (M), 4320 min) was 1.5 - 3 × and the activation at 0.1 µM ([3]; at 10^-7 M) was 40 to 60%. The MLR ([4]; at 10^-9 - 10^-5 M) was 2 - 3 × and the “stimulation of cytotoxic T lymphocytes (CD8+ T cells)” value [5] was “no indication”.
For `Oc1ncnc2[nH]ncc12` [allopurinol], the immunomodulating activity [5] is given as “immunosuppressive”.
For isoprinosine, the immunomodulating activity [5] is listed as “not an effective immunomodulator” and the toxicity [6] is listed as “very nontoxic”.
